The record followed here is PMC5317004 (Scientific Reports, 2017).

The assay has as its system chimeric α7-GluClβR. Kind of assay: IVM added after activation by ACh: kinetics and extent of current decline (whole-cell patch clamp). It is filed as cell-based, chick nAChR α7 / C. elegans GluClβ. On the procedure: Following a further wash (for a minute), the same cell was challenged again with a 5-μM-IVM solution (in 0.01% DMSO; red bar, arrow and trace). Recordings were performed at −60 mV. (B) Time constant of current decline (τd). Values of τd were determined by exponential fits to the declining phase of the currents using Eq. 3. […] Error bars correspond to SEM of N = 6 and N = 5 cells for recordings at −60 mV and −20 mV, respectively. Paired, two-tailed Student’s t-tests indicate that for not significant (“ns”) P > 0.3, and ** 0.001 < P < 0.005.
Figure 8 The inhibition of ACh-elicited currents by addition of IVM is irreversible. […] (B) Representative currents for the same experiment as in A, but with the exception of IVM (0.5 μM) addition after the ACh-elicited current reached to its peak (IP1). Inset, magnification of the indicated segment of the current trace. In both panels A and B, black bars above the current traces indicate ACh or IVM applications. […] Error bars correspond to SEM. Unpaired, two-tailed Student’s t-tests indicate *** P < 0.0001.
The declining phase of the currents was fitted with an exponential time course to give the time constant of current decline by using equation 3, […]
I is the current, IP is the peak of the current, IS is the steady state current, t is the time, and τ is the time constant of current decline. […]
Supplementary Materials and Methods
The structural mo del of the chi meric α7-GluClβR was built based on th e methodologies published previously1,2, and the sequence of the chimeric subunit is presented in […]
DNA construct and preparation of cells for electrophysiological experiments The cDNA encoding the α7-GluClβ chimeric subunit was generated as described previously3, and was cloned into a pcDNA3.1 vector.
Chinese hamster ovary cells (CHO-K1, ATCC via Biological Industries Israel, Beit Haemek Ltd.) were cultured as performed previously2 in Dulbecco 's Modified E agle Med iu m (DMEM) containing 10% fetal calf serum (Biological Industries Israel Beit Haemek Ltd.), 2 mM glutamax, 100 Units/ml penicillin G and 100 μg/ml streptomycin, and grown in 5% CO2 at 37°C under 90-95% hu midity . CHO cells were seeded on glass coverslips (13-mm diameter) placed in a 24-multiwell plate. For the expression of the α7-GluClβR, cells were transiently transfected with the pcDNA3.1 plasmid containing the receptor’s ORF (200-600 ng per well) using transit-LT1 transfection reagent (Mirus, USA), according to the manufacturer’s protocol. pIRES-CD8 plas mid (200 ng per well) was also added to enable visualization of the ex pressing cells by beads coated with anti-CD8 antibodies (Invitrogen). For the expression of GluClβ ho mo mers, we used the pcDNA3.1 plas mid containing the GluClβ-subunit ORF (600-1000 ng per well), pIRES-CD8 plas mid (200 ng per well) and th e X-tremeGENE HP DNA Transfection Reagent (Roche Life Science). Recordings were performed 48-72 hours following transfection.
Whole-cell patch clamp recordings
Recordings were performed in the aforementioned CHO cells, as previously described1,2. Whole-cell patch clamp experiments were performed with normal external solution (NES) contained (in millimolar): 140 NaCl, 2.8 KCl, 2 CaCl2, 2 MgCl2, 10 glucose and 10 HEPES, adjusted to pH 7.35 with NaOH (310 mOsM). The pipette solution contained […]
(in millimolar): 130 KCl, 4 MgCl2, 4 Na2ATP, 1 EGTA and 10 HEPES, adjusted to pH 7.35 with KOH (290 mOsM). The osmolarity of these solutions was maintained by adding sucrose.
The electrode resistance was 6-10 MΩ when filled with the pipette solution. External solutions were applied onto the cell by using the VC-77SP fast-step system (Warner Instruments, CT, USA) combined with N2 pressure of 3-4 psi to produce laminar flow of the external solution onto the patched cell. All measurements were performed at 25 °C. The currents w ere measured with an Axopatch 200B patch-clamp amplifier (Molecular Devices, Sunnyvale, CA) and a Digidata 1440A interface (Molecular Devices). […]

The mark [1] stands for this setting: 30 μM ACh + 0.5 μM IVM, 9.6 sec, N = 10.

Regarding `CC[C@H](C)[C@H]1O[C@]2(CC[C@@H]1C)C[C@@H]1C[C@@H](C/C=C(\C)[C@@H](O[C@H]3C[C@H](OC)[C@@H](O[C@H]4C[C@H](OC)[C@@H](O)[C@H](C)O4)[C@H](C)O3)[C@@H](C)/C=C/C=C3\CO[C@@H]4[C@H](O)C(C)=C[C@@H](C(=O)O1)[C@]34O)O2` [IVM, Ivermectin], the “reduction of time constant of current decline (τd)” value (5 μM IVM added after peak of 350 μM ACh response, −60 mV and −20 mV) is given as “more than two folds”. Under “30 μM ACh + 0.5 μM IVM”, the “τd1 amplitude percentage (%A)” value turned out to be 55 ± 10% and the “τd2 amplitude percentage (%A)” value is 45 ± 10%. Besides, under setting [1], the “τd1, time constant of current decline” value is reported as 3370 ± 318 ms and the “τd2, time constant of current decline” value turned out to be 987 ± 120 ms. In addition, the “time between the start of application and the onset of effect” value (six experiments as in Fig. 5A, 350 μM ACh, 5 μM IVM) was determined as 132 ± 24 milliseconds.
